From ChEMBL document CHEMBL1129785, “Preparation and structure-activity relationship of novel P1/P1'-substituted cyclic urea-based human immunodeficiency virus type-1 protease inhibitors” (J Med Chem, 1996) come the findings set out here.

Values joined by “and” are separate entries in the source; they are usually repeats but may differ in a detail not shown here. Equal entries are not always repeated. Bounds are passed on as bounds.

The subject of assay [1] is Human immunodeficiency virus 1. Put plainly: Antiviral potency was assessed by measuring the effect on accumulation of viral RNA transcripts 3 days after infection of MT-2 cells with HIV-1 RF. Format: functional, MT2.
The target of assay [2] is Human immunodeficiency virus type 1 protease (Human immunodeficiency virus 1, UniProt Q72874). Put plainly: Inhibitory activity against HIV protease.
Assay [3] deals with Human immunodeficiency virus type 1 protease (Human immunodeficiency virus 1) (UniProt Q72874). Put plainly: Ability to increase whole-cell antiviral efficacy through better translation defined as the ratio between IC90 and Ki. It counts as functional.
Setting [4] is: Human immunodeficiency virus 1, MT2, 72 h.

For `O=C1N(Cc2ccc(CO)cc2)[C@H](Cc2ccc(F)cc2)[C@H](O)[C@@H](O)[C@@H](Cc2ccc(F)cc2)N1Cc1ccc(CO)cc1`, the 90% effect level in assay [1] (setting [4]) (IC90) was put at 100 nM. The Ki (in general, the dissociation constant of the complex between target and ligand, obtained from inhibition or displacement) in assay [2] is 0.44 nM. Also, the Ratio in assay [3] was 230.

For the compound `Nc1ccc(C[C@@H]2[C@H](O)[C@@H](O)[C@@H](Cc3ccc(N)cc3)N(Cc3ccccc3)C(=O)N2Cc2ccccc2)cc1` [listing 1 of 3 here], the IC90 (commonly the point of the concentration-response curve where the effect stands at 90%) in assay [1] (setting [4]) turned out to be 1400 nM. This compound also had an inhibition constant (Ki) in assay [2] of 8.5 nM.

Take `CSCC[C@@H]1[C@H](O)[C@@H](O)[C@@H](CCSC)N(Cc2ccccc2)C(=O)N1Cc1ccccc1`: the IC90 in assay [1] (setting [4]) is > 10000 nM. This compound gave a Ki in assay [2] of 1100 nM.

Consider `CSCC[C@@H]1[C@H](O)[C@@H](O)[C@@H](CCSC)N(Cc2ccc(CO)cc2)C(=O)N1Cc1ccc(CO)cc1`, for which the 90% effect concentration (IC90) in assay [1] (setting [4]) is > 10000 nM. In assay [2], this compound had an inhibitory constant (Ki) of 3900 nM. As to `Cc1ccc(C)n1-c1cccc(C[C@@H]2[C@H](O)[C@@H](O)[C@@H](Cc3cccc(-n4c(C)ccc4C)c3)N(Cc3ccccc3)C(=O)N2Cc2ccccc2)c1`, the IC90 in assay [1] (setting [4]) was > 10000 nM. In addition, in assay [2], the affinity corresponds to a Ki of 160 nM. For `O=C1N(Cc2ccccc2)[C@H](CC2CCCCC2)[C@H](O)[C@@H](O)[C@@H](CC2CCCCC2)N1Cc1ccccc1`, the IC90 in assay [1] (setting [4]) was > 10000 nM. Further, the inhibitory constant (Ki) in assay [2] was 28 nM. As to `CC(C)C[C@@H]1[C@H](O)[C@@H](O)[C@@H](CC(C)C)N(Cc2ccccc2)C(=O)N1Cc1ccccc1`, the IC90 in assay [1] (setting [4]) was > 10000 nM. For the same compound, the affinity in assay [2], expressed as Ki, was 1700 nM.

As to `C[C@@H]1[C@H](O)[C@@H](O)[C@@H](C)N(Cc2ccccc2)C(=O)N1Cc1ccccc1`, the IC90 in assay [1] (setting [4]) is > 10000 nM. This compound came in with a Ki in assay [2] of 5000 nM. As to `CC(C)[C@@H]1[C@H](O)[C@@H](O)[C@@H](C(C)C)N(CC2CC2)C(=O)N1CC1CC1`, in assay [1] (setting [4]), the IC90 is > 10000 nM. Turning to `O=C1N(Cc2ccccc2)[C@H](CCc2ccccc2)[C@H](O)[C@@H](O)[C@@H](CCc2ccccc2)N1Cc1ccccc1`, the IC90 in assay [1] (setting [4]) is > 10000 nM. The compound also displayed a Ki in assay [2] of 320 nM. In the case of `CC(C)C[C@@H]1[C@H](O)[C@@H](O)[C@@H](CC(C)C)N(CC2CC2)C(=O)N1CC1CC1`, the concentration for an effect of 90% (IC90) in assay [1] (setting [4]) was > 10000 nM. Also, in assay [2], the Ki was 86 nM.

Regarding `Nc1ccc(C[C@@H]2[C@H](O)[C@@H](O)[C@@H](Cc3ccc(N)cc3)N(Cc3ccccc3)C(=O)N2Cc2ccccc2)cc1` [listing 2 of 3 here], in assay [1], the concentration for an effect of 90% (IC90) worked out at 1300 nM. Moreover, in assay [2], the affinity corresponds to a Ki of 7.1 nM.

Take `O=C1N(Cc2ccc(CO)cc2)[C@H](Cc2ccncc2)[C@H](O)[C@@H](O)[C@@H](Cc2ccncc2)N1Cc1ccc(CO)cc1`: the 90% effect concentration (IC90) in assay [1] (setting [4]) is > 10000 nM. The same compound gave a Ki in assay [2] of 4.8 nM.

Consider `CC(C)c1ccc(C[C@@H]2[C@H](O)[C@@H](O)[C@@H](Cc3ccc(C(C)C)cc3)N(Cc3ccccc3)C(=O)N2Cc2ccccc2)cc1`, for which the IC90 in assay [1] (setting [4]) was > 10000 nM. In assay [2], this compound yielded a Ki of 1.1 nM.

Consider `CSCC[C@@H]1[C@H](O)[C@@H](O)[C@@H](CCSC)N(CC2CC2)C(=O)N1CC1CC1`, for which the IC90 in assay [1] (setting [4]) is > 10000 nM.

Turning to `CC(C)C[C@@H]1[C@H](O)[C@@H](O)[C@@H](CC(C)C)N(Cc2ccc(CO)cc2)C(=O)N1Cc1ccc(CO)cc1`, in assay [1] (setting [4]), the IC90 was > 10000 nM. In addition, the affinity in assay [2], expressed as Ki, was 38 nM. On to `Nc1ccc(C[C@@H]2[C@H](O)[C@@H](O)[C@@H](Cc3ccc(N)cc3)N(Cc3ccccc3)C(=O)N2Cc2ccccc2)cc1` [listing 3 of 3 here], for which, in assay [3], the Ratio was 165 and 180. Consider `O=C1N(Cc2ccccc2)[C@H](Cc2c[nH]c3ccccc23)[C@H](O)[C@@H](O)[C@@H](Cc2c[nH]c3ccccc23)N1Cc1ccccc1`, for which the IC90 in assay [1] (setting [4]) was > 10000 nM. In addition, the Ki in assay [2] was determined as 580 nM.

Take `COc1ccccc1C[C@@H]1[C@H](O)[C@@H](O)[C@@H](Cc2ccccc2OC)N(CC2CC2)C(=O)N1CC1CC1`: in assay [1] (setting [4]), the concentration for an effect of 90% (IC90) was > 10000 nM. The compound further returned a Ki in assay [2] of 65 nM.

Consider `O=C1N(Cc2ccccc2)[C@H](Cc2ccncc2)[C@H](O)[C@@H](O)[C@@H](Cc2ccncc2)N1Cc1ccccc1`, for which, in assay [1] (setting [4]), the concentration for an effect of 90% (IC90) turned out to be 5700 nM. The Ki in assay [2] is 22 nM. In the case of `O=C1N(Cc2ccc(CO)cc2)[C@H](CC2CCCCC2)[C@H](O)[C@@H](O)[C@@H](CC2CCCCC2)N1Cc1ccc(CO)cc1`, the IC90 in assay [1] (setting [4]) is > 10000 nM. Also, the affinity in assay [2], expressed as Ki, was 32 nM.
